Measurements: patent publication US6037333A, “Microbe-inhibiting compositions” (Trustees of Tufts College, priority 1998, dated 2000)
Entries after “also recorded” stand apart in the source; their conditions may differ. Where two headings read alike, the source gives them in different places.

Legend:
proteinases E1, E2 = test: Zymography with proteinase inhibitors, media conditioned by epithelial cells alone; format: biochemical, rabbit; conditions: inhibitor 1 mM
Procedure: (§1) To characterize the mechanism by which the mannose-mediated host-parasite interactions influence the amoeba-induced cytolysis and/or cytopathic effect, conditioned media obtained by incubating amoebae with primary cultures of corneal epithelium in the presence and absence of α-Man for 6 to 8 hours were analyzed by zymography. Media conditioned by only Acanthamoeba or only epithelial cells were also analyzed. Zymography was performed using separating gels containing 10% acrylamide and 2 mg/ml gelatin, essentially as described by D. E. Kleiner et al. (Anal Biochem. 218:325-329, 1994). Samples were diluted in the electrophoresis sample buffer (U. K. Laemmli, Nature 227:680-685, 1970) without mercaptoethanol and were applied to the gels. After electrophoresis, proteinases separated on the gels were renatured by incubating the gels in 2.5% Triton X-100 in 50 mM Tris-HCl, pH 7.5 to remove SDS. After incubating the gels for 18 hours in a developing buffer (50 mM Tris-HCl, pH 7.5 containing 10 mM CaCl2), the gels were stained with Coomassie brilliant blue. Areas of digestion were visualized as non-staining regions. In some experiments, samples were pre-treated with phenylmethylsulfonyl fluoride (PMSF, 1 mM), an inhibitor of […] for one hour prior to electrophoresis, or 1,10-phenanthroline (1 mM), an inhibitor of metalloproteinases, was added to the developing buffer.

[1] = target: proteinases P1, P2, P3, P4; test: Zymography with proteinase inhibitors, components P1-P4; format: biochemical, Acanthamoeba; conditions: inhibitor 1 mM
Procedure: as §1

[2] = target: mannose binding protein (MBP) of Acanthamoeba (Acanthamoeba castellanii, UniProt Q6J288); test: Solid-phase assay of 35S-labeled Acanthamoeba binding to Man-BSA coated wells; set-up: species or system Acanthamoeba strain MEEI 0184 (A. castellani); conditions: for Inhibition of Acanthamoeba binding to Man-BSA: at 100 mM; for Inhibition of amoebic binding to Man-BSA / affinity of amoebic lectin: no concentration stated
From the text: The Acanthamoeba strain MEEI 0184 (A. castellani based on morphological characteristics) was derived from an infected human cornea and used throughout this study. ATCC strain 30868 should have similar properties. The parasites were axenically cultured in PYG medium. A solid-phase assay characterized the sugar binding properties of the mannose binding protein (MBP) of Acanthamoeba (Z. Yang et al., Infect. Immun. 65:439-445, 1997). Briefly, wells of microtiter plates were coated with bovine serum albumin-α-D-mannopyranosyl phenylisothiocyanate (Man-BSA, 15-25 moles of α-D-mannopyranoside/mole albumin, 0.03 μg/ml, 50μl/well in 0.1 M sodium carbonate buffer, pH 9.6, 4° C. overnight). Nonspecific binding was blocked with 1% BSA in phosphate buffered saline (PBS, 1 hour, room temperature). After adding a 50-μl aliquot of ^35 S-labeled Acanthamoeba (5×10^6 cells/ml in PBS; 1 to 2 cpm/parasite, >95% trophozoites) to each well, the plates were incubated for 2 hours at room temperature. After rinsing the cells with PBS to remove unbound Acanthamoeba, 0.1 ml of 2% sodium dodecyl sulfate (SDS) was added to each well, and the radioactivity in aliquots of solubilized material was determined in a scintillation counter.

Acanthamoeba [3] = test: Acanthamoeba-induced cytopathic effect (CPE) assay, immortalized corneal epithelial cultures; format: cell-based; conditions: for Inhibition of amoeba-induced CPE: no concentration stated; for inhibition at 50000 µM: at 50 mM; for inhibition at 310 µM: at 0.31 mM
Procedure: Corneal epithelial cells with extended life span were also produced.
(§2) To characterize the role of carbohydrate-mediated host-parasite interactions in the Acanthamoeba-induced cytotoxicity of host cells, in vitro cytopathic assays were performed using both primary and immortalized cultures of corneal epithelium as host cells. Immortalized cells were assayed as confluent cultures in 24-well plates, and primary cells were assayed as confluent cells in 35-mm dishes or 6-well plates.
(§3) The plates were incubated at 37° C. in a CO2 incubator and periodically examined under a phase-contrast microscope for the presence of cell-free plaques in the monolayer for up to 28-30 hours. Control wells contained host cells without the parasites. At the end of the incubation period, the cultures were stained with Giemsa (Diff-Quik, Dade Diagnostic Inc., Aguada, PR). Approximate cell density in each well was estimated by scanning the stained plates in a calibrated, computer-assisted Bio-Image Scanner (Millipore, Ann Arbor, Mich.). Cytopathic effect (CPE) was expressed as percentage of the optical density by the following formula: [formula]
The CPE assays were performed in the SFB media containing one or more saccharides to be tested.
After staining with Giemsa, percent cell loss in each well was calculated based on the optical density in each well.

Acanthamoeba [4] = test: Acanthamoeba-induced CPE assay, primary cultures of corneal epithelium; format: cell-based; conditions: primary cultures as target cells
Procedure: In vitro cytopathic assays were performed using cell cultures of corneal epithelium as target cells. Primary cell cultures of rabbit corneal epithelium were prepared according to published protocols (M. M. Jumblatt, Invest. Opthalmol. Visual Sci. 24:1139-43, 1983) using rabbit eyes from Pel-Freez Biologicals (N. Panjwani et al., Invest. Opthalmol. Visual Sci. 31:689-695, 1990) (Rogers, AK). Generally, seventy-five eyes were processed at a time. Primary cultures have limited life span and can only be passaged 2 to 3 times without significant alteration in cell morphology.
as §2
as §3, with “The parasites (>95% trophozoites) were rinsed three times in a serum-free Eagle's minimum essential medium supplemented with 0.4% bovine serum albumin (SFB) and aliquots of the parasite suspension (0.2×10^5 to 1×10^6 parasites/ml SFB medium, 300 μl/well for 24-well plates and 500 μl/well for 6-well plates or 35-mm dishes) were added to wells of confluent epithelial cultures which had been rinsed and preincubated in SFB medium for 2 hours. The” for “The”
Primary cultures were less susceptible to amoeba-induced CPE, requiring 1×10^6 parasites/ml to completely destroy the monolayer within 24 hours. This parasite concentration was five times higher than that required to produce the same effect when immortalized cultures were used as target host cells.

[5] = Acanthamoeba, in Oryctolagus cuniculus, read-out: Inhibition of cytopathic effect (% inhib. at indicated conc.)

Sequence of mannose binding protein (MBP) of Acanthamoeba (Q6J288 entry or part of it): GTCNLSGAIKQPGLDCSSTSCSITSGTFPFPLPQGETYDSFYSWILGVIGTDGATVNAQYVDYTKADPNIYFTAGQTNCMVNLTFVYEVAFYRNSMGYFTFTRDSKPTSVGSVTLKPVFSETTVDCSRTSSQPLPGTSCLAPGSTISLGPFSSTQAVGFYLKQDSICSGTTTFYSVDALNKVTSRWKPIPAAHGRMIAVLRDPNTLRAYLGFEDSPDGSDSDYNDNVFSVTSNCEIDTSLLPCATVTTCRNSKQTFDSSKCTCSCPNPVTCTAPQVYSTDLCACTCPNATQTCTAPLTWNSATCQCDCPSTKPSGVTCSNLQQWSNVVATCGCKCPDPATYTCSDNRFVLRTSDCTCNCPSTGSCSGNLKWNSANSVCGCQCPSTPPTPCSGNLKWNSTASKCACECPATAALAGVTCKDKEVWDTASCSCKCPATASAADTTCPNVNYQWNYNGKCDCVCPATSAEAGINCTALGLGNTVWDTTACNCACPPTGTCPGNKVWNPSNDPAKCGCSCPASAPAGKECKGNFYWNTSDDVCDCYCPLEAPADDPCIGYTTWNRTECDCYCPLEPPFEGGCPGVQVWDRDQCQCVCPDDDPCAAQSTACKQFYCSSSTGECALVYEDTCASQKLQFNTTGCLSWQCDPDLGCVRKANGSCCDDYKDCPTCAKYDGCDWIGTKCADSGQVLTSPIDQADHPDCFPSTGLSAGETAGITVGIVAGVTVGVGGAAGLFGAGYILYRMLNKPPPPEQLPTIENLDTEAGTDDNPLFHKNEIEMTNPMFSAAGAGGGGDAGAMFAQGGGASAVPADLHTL

Structure (SMILES) | Inhibition of Acanthamoeba binding to Man-BSA [2] | Inhibition of amoebic binding to Man-BSA / affinity of amoebic lectin [2] | Inhibition of amoeba-induced cytopathic effect (Acanthamoeba [3]; at 100 mM) | Inhibition of amoeba-induced CPE (Acanthamoeba [3]) | further results
c1cnc2c(c1)ccc1cccnc12 [1,10-phenanthroline] | – | – | – | – | Susceptibility of component E1 (93 kD) to inhibitor (proteinases E1, E2): susceptible; Susceptibility of component E2 (63 kD) to inhibitor (proteinases E1, E2): susceptible; Susceptibility of component P1 (230 kD) to inhibitor [1]: resistant; Susceptibility of component P2 (97 kD) to inhibitor [1]: resistant; Susceptibility of component P3 (80 kD) to inhibitor [1]: susceptible; Susceptibility of component P4 (55 kD) to inhibitor [1]: resistant
OC[C@H]1OC(O)[C@@H](O)[C@H](O)[C@@H]1O (stereo partly drawn) [D-altrose] | did not inhibit | not inhibitory | – | – | Inhibition of amoeba-induced cytopathic effect (Acanthamoeba [3]): did not inhibit
OC1OC[C@@H](O)[C@H](O)[C@@H]1O (stereo partly drawn) [D-lyxose] | did not inhibit | lack of inhibitory activity; also recorded: no affinity | did not inhibit | – | –
OC[C@@H](O)[C@@H](O)[C@H](O)[C@H](O)CO [D-mannitol] | did not inhibit | did not inhibit | did not inhibit | did not inhibit | –
O=P(O)(O)OC[C@H]1OC(O)[C@@H](O)[C@@H](O)[C@@H]1O (stereo partly drawn) [D-mannose-6-phosphate] | did not inhibit; also recorded: No inhibition | – | did not inhibit | – | inhibition at 50000 µM (Acanthamoeba [3]; [5]): 30%
OC[C@H]1OC(O)[C@@H](O)[C@@H](O)[C@@H]1O (stereo partly drawn) [D-mannose] | – | – | – | – | inhibition at 5000 µM (Acanthamoeba [3]; [5]): 50%
OC[C@@H]1OC(O)[C@H](O)[C@H](O)[C@H]1O (stereo partly drawn) [L-mannose] | did not inhibit | – | – | – | Inhibition of amoeba-induced cytopathic effect (Acanthamoeba [3]): did not inhibit
C[C@@H]1OC(O)[C@H](O)[C@H](O)[C@H]1O (stereo partly drawn) [L-rhamnose] | did not inhibit | – | did not inhibit | – | –
OCC1OC(OC2C(O)C(CO)OC(OCC3OC(OC4C(O)C(CO)OC(OCC5OC(O)C(O)C(O)C5O)C4O)C(O)C(O)C3O)C2O)C(O)C(O)C1O (stereo not drawn) [Man(α1-3)Man(α1-6)Man-(α1-3)Man(α1-6)Man] | – | potent inhibitors | – | potent inhibitors | Inhibition of amoeba-induced CPE (Acanthamoeba [4]): inhibited CPE
OCC1OC(OC2C(O)C(CO)OC(OCC3OC(O)C(O)C(O)C3O)C2O)C(O)C(O)C1O (stereo not drawn) [Man(α1-3)Man(α1-6)Man] | – | potent inhibitors | – | potent inhibitors | inhibition at 310 µM (Acanthamoeba [3]; [5]): 100%; Inhibition of amoeba-induced CPE (Acanthamoeba [4]): inhibited CPE
OC[C@H]1O[C@H](O[C@H]2[C@H](O)[C@@H](CO)OC(O)[C@H]2O)[C@@H](O)[C@@H](O)[C@@H]1O (stereo partly drawn) [Man(α1-3)Man] | – | – | – | – | Relative inhibitory potency in binding to Man-BSA ([2]; comparator named in the value): three times more potent than the corresponding α-1-6 disaccharide; inhibition at 310 µM (Acanthamoeba [3]; [5]): 91%
OC[C@H]1O[C@H](OC[C@H]2OC(O)[C@@H](O)[C@@H](O)[C@@H]2O)[C@@H](O)[C@@H](O)[C@@H]1O (stereo partly drawn) [Man(α1-6)Man] | – | – | – | – | inhibition at 310 µM (Acanthamoeba [3]; [5]): 80%
CO[C@H]1O[C@H](CO)[C@@H](O)[C@H](O)[C@H]1O [Methyl-α-D-glucopyranoside] | – | poor inhibitors | – | poor inhibitors | inhibition at 100000 µM ([2]; read-out: Inhibition of binding, % at indicated conc.): 40%; inhibition at 50000 µM (Acanthamoeba [3]; [5]): 31%
CC(=O)N[C@H]1C(O)O[C@H](CO)[C@H](O)[C@@H]1O (stereo partly drawn) [N-acetyl-D-galactosamine] | did not inhibit | – | did not inhibit | – | –
CC(=O)N[C@@H]1C(O)O[C@H](CO)[C@@H](O)[C@@H]1O (stereo partly drawn) [N-acetyl-D-mannosamine] | did not inhibit | did not inhibit | did not inhibit | did not inhibit | –
OC[C@H]1OC(O)[C@H](O)[C@@H](O)[C@@H]1O (some centres unmarked) [glucose] | – | weak inhibitor | – | – | –
CO[C@H]1O[C@H](CO)[C@H](O)[C@H](O)[C@H]1O [methyl-α-D-galactopyranoside] | did not inhibit | did not inhibit | did not inhibit | did not inhibit | Inhibition of amoeba-induced CPE (Acanthamoeba [4]): did not inhibit CPE
CO[C@@H]1O[C@H](CO)[C@H](O)[C@H](O)[C@H]1O [methyl-β-D-galactopyranoside] | did not inhibit | did not inhibit | did not inhibit | did not inhibit | Inhibition of amoeba-induced CPE (Acanthamoeba [4]): did not inhibit CPE
CO[C@@H]1O[C@H](CO)[C@@H](O)[C@H](O)[C@H]1O [methyl-β-D-glucopyranoside] | did not inhibit | – | did not inhibit | – | –
OC[C@H]1O[C@H](O)[C@@H](O)[C@@H](O)[C@H]1O [α-D-talose] | did not inhibit | not inhibitory | did not inhibit | – | –
C[C@@H]1O[C@@H](O)[C@@H](O)[C@H](O)[C@@H]1O [α-L-Fucose] | – | poor inhibitors; also recorded: weak inhibitor | – | poor inhibitors; also recorded: weak inhibitor | Inhibition of amoebic binding to Man-BSA / affinity of amoebic lectin ([2]; listed as α-fucose): weak inhibitors; inhibition at 100000 µM (Acanthamoeba [3]; Acanthamoeba, in Oryctolagus cuniculus, at 100 mM, read-out: Inhibition of cytopathic effect (% inhib. at indicated conc.)): 40%; Inhibition of amoeba-induced CPE (Acanthamoeba [4]): not inhibitory
